Literature values, collected in US6528013B1, “Uncomplexed cyclodextrin compositions for odor and wrinkle control” (The Procter & Gamble Company, priority 1998, dated 2003).

| solubility in water | Structure (SMILES) |
| --- | --- |
| about 25% | O=[N+]([O-])C(Br)(CO)CO [Bronopol, 2-bromo-2-nitropropane-1,3-diol] |
| more than 50% | CC1(C)C(=O)N(CO)C(=O)N1CO [DMDM hydantoin, 1,3-bis(hydroxymethyl)-5,5-dimethyl-2,4-imidazolidinedione] |
| about 4% | OCc1ccccc1 [benzyl alcohol] |
| about 1.8% | [H]/N=C(\N/C(=N/[H])NCCCCCCNC(=N)NC(=N)Nc1ccc(Cl)cc1)Nc1ccc(Cl)cc1 [chlorhexidine diacetate, 1,1′-hexamethylene bis(5-(p-chlorophenyl)biguanide), reference compound] |
| about 70% | [H]/N=C(\N/C(=N/[H])NCCCCCCNC(=N)NC(=N)Nc1ccc(Cl)cc1)Nc1ccc(Cl)cc1 [chlorhexidine digluconate, 1,1′-hexamethylene bis(5-(p-chlorophenyl)biguanide), reference compound] |
| about 0.8% | CC(C)(O)C(Cl)(Cl)Cl [chlorobutanol, 1,1,1-Trichloro-2-methylpropan-2-ol, reference compound] |

More lines, now with the values behind:

| Structure (SMILES) | solubility in water |
| --- | --- |
| OCCOc1ccccc1 [2-phenoxyethanol] | about 2.67% |
| OCCc1ccccc1 [2-phenylethanol] | about 2% |
| O=[N+]([O-])C1(Br)COCOC1 [Bronidox L, 5-bromo-5-nitro-1,3-dioxane] | about 0.46% |
| ClC=CC[N+]12CN3CN(CN(C3)C1)C2.[Cl-] [Dowicil 200, 1-(3-Chlorallyl)-3,5,7-triaza-1-azoniaadamantane chloride] | freely soluble in water |
| [Na+].[O-][n+]1ccccc1[S-] [sodium pyrithione] | about 50% |
